Results on 2 sequences are retold here after publication PMC2323292, “Immunodominant Tuberculosis CD8 Antigens Preferentially Restricted by HLA-B” (PLoS Pathogens, 2007).

Where two headings read alike, the source gives them in different places.

The test system of assay [1] is CD8+ T cells. In words: Ex vivo IFN-γ ELISPOT, CD8+ T cells with peptide-pulsed autologous DCs. Type of assay: cell-based, human. Conditions: donor 443 (LTBI), linear regression.
Assay [2] has as its system CD8+ T cells. Conditions: donor 160; ex vivo, autologous DCs pulsed with epitope; clones published previously ref 17; cited from earlier work. An excerpt:
Table 3 Summary of CD8+ T Cell Epitopes Identified | column: Epitope-Specific T Cells^a

As to ELPQWLSANR, in the assay on CD8+ T cells [1], the “Epitope-Specific T Cells” value is <10 IFN-γ spot forming units per 2.
Regarding RADEEQQQAL, the “Epitope-Specific T Cells” value with CD8+ T cells [2] was 120 IFN-γ spot forming units per 2.
